Results taken from patent US10947242B2, “[1,2,4]triazolo[1,5and#8208;A]pyrimidine compounds as PDE2 inhibitors” (Janssen Pharmaceutica NV, priority 2016, dated 2021).
Where two headings read alike, the source gives them in different places.

Columns and labels:
Format in all cases: biochemical
[1] = biological target: T1, Human recombinant PDE3A (hPDE3A) (Homo sapiens, UniProt Q14432); assay: In vitro assay PDE3A (SPA, 3H-cAMP hydrolysis); settings: for IC50: hPDE3B pIC50, read-out: pIC50 (converted); for Emax: read-out: hPDE3B Emax, read-out: Emax;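 as to all read-outs here: the method names PDE3A and the table heading PDE3B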
T1 construct: purchased Scottish Biomedical; host or cells: Sf9 insect cells
Description: Human recombinant PDE3A (hPDE3A) was supplied as a partially purified insect cell lysate by Scottish Biomedical, it was cloned from human brain and expressed in Sf9 cells. Tested compounds were dissolved and diluted in 100% DMSO to a concentration 100 fold of the final concentration in the assay. Compound dilutions (0.4 μl) were added in 384 well plates to 20 μl of incubation buffer (50 mM Tris pH 7.8, 8.3 mM MgCl2, 1.7 mM EGTA). 10 μl of hPDE3A enzyme in incubation buffer was added and the reaction was started by addition of 10 μl substrate to a final concentration of 0.4 μM cAMP and 2.4 μCi/ml [^3H]-cAMP. The reaction was incubated for 60 min at room temperature. […] After sedimentation of the beads during 30 min the radioactivity was measured in a Perkin Elmer Topcount scintillation counter and results were expressed as cpm. For blanc values the enzyme was omitted from the reaction and replaced by incubation buffer. Control values were obtained by addition of a final concentration of 1% DMSO instead of compound.

[2] = biological target: T2, Human recombinant PDE10A (hPDE10A) (Homo sapiens, UniProt Q9Y233); assay: In vitro assay PDE10A, human clone (SPA, 3H-cAMP hydrolysis); settings: human clone (h), default; for Emax: read-out: hPDE10A2 Emax; for IC50: read-out: hPDE10A2 pIC50 (converted)
T2 construct: His tag (inferred from metal chelate purification); made in house; host or cells: Sf9 insect cells (baculovirus)
Description: Rat recombinant PDE10A (rPDE10A2) was expressed in Sf9 cells using a recombinant rPDE10A baculovirus construct. […] Tested compounds were dissolved and diluted in 100% DMSO to a concentration 100 fold of the final concentration in the assay. Human recombinant PDE10A ([…]) was expressed in Sf9 cells using a recombinant hPDE10A baculovirus that was made and amplified in house. […] Compound dilutions (0.4 μl) were added in 384 well plates to 20 μl of incubation buffer (50 mM Tris pH 7.8, 8.3 mM MgCl2, 1.7 mM EGTA). 10 μl of rPDE10A or hPDE10A enzyme in incubation buffer was added and the reaction was started by addition of 10 μl substrate to a final concentration of 60 nM cAMP and 0.008 μCi ^3H-cAMP. The reaction was incubated for 60 minutes at room temperature. […] After sedimentation of the beads during 30 minutes the radioactivity was measured in a Perkin Elmer Topcount scintillation counter and results were expressed as cpm. For blanc values the enzyme was omitted from the reaction and replaced by incubation buffer. Control values were obtained by addition of a final concentration of 1% DMSO instead of compound.

[3] = biological target: T3, Human recombinant PDE2A (hPDE2A) (Homo sapiens, UniProt O00408); assay: In vitro assay PDE2A (SPA, 3H-cGMP hydrolysis); settings: for IC50: read-out: hPDE2A pIC50 (converted); for Emax: read-out: hPDE2A Emax
T3 construct: His tag (inferred from metal chelate purification); made in house; host or cells: Sf9 insect cells (baculovirus)

[4] = human recombinant PDE2A, 10 μM cGMP substrate

T2 sequence (Q9Y233 267-1055): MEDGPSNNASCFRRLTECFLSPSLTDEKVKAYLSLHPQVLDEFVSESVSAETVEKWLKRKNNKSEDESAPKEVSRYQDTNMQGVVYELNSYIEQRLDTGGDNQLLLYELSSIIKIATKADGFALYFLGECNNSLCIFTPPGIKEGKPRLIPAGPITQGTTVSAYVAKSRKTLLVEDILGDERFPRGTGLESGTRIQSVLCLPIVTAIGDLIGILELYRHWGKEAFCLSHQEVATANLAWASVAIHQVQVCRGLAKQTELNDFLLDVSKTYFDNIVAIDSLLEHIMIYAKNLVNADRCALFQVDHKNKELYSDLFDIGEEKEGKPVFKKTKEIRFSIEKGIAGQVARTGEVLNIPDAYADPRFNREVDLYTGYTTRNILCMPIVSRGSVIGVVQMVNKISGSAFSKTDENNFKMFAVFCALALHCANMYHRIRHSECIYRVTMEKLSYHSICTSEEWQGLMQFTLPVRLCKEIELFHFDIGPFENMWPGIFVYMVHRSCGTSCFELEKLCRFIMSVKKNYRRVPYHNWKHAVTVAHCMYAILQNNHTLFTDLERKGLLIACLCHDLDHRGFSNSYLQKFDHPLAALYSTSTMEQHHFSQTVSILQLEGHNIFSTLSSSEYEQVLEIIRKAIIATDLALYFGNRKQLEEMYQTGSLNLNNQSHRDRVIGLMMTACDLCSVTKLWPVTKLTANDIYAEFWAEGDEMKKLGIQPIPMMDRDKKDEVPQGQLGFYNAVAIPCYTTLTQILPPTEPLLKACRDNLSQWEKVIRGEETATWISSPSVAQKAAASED
T1 sequence (Q14432 whole entry): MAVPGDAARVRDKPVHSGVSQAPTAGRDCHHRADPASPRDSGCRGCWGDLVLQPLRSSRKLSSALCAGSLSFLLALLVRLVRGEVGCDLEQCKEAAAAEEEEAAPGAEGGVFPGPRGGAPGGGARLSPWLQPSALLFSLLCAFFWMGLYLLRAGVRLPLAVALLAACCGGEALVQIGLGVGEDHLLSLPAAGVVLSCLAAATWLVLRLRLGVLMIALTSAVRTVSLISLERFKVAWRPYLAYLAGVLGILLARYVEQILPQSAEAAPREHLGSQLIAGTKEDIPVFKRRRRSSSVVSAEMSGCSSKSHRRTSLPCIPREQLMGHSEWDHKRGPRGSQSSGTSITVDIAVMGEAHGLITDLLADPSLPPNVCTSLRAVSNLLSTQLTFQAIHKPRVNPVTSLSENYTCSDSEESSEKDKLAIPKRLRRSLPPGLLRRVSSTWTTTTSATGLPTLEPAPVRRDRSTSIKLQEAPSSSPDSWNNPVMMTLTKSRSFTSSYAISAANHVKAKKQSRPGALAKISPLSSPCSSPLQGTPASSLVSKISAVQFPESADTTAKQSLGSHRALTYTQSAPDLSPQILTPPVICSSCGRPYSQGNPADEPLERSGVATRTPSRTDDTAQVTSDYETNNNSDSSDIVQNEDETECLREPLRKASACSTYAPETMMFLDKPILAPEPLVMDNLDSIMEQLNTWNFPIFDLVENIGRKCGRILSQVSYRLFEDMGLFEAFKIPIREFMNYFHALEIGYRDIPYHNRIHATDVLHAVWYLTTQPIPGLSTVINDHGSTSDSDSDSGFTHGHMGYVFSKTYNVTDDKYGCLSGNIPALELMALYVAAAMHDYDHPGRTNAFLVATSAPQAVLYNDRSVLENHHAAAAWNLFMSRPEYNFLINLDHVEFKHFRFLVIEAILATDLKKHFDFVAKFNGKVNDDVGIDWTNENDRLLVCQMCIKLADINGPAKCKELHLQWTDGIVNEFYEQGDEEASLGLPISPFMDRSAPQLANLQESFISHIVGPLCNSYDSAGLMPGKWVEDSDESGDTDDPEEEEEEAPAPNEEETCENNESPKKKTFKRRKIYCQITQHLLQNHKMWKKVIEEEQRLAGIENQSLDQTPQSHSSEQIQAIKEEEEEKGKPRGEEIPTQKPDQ
T3 sequence (O00408 whole entry): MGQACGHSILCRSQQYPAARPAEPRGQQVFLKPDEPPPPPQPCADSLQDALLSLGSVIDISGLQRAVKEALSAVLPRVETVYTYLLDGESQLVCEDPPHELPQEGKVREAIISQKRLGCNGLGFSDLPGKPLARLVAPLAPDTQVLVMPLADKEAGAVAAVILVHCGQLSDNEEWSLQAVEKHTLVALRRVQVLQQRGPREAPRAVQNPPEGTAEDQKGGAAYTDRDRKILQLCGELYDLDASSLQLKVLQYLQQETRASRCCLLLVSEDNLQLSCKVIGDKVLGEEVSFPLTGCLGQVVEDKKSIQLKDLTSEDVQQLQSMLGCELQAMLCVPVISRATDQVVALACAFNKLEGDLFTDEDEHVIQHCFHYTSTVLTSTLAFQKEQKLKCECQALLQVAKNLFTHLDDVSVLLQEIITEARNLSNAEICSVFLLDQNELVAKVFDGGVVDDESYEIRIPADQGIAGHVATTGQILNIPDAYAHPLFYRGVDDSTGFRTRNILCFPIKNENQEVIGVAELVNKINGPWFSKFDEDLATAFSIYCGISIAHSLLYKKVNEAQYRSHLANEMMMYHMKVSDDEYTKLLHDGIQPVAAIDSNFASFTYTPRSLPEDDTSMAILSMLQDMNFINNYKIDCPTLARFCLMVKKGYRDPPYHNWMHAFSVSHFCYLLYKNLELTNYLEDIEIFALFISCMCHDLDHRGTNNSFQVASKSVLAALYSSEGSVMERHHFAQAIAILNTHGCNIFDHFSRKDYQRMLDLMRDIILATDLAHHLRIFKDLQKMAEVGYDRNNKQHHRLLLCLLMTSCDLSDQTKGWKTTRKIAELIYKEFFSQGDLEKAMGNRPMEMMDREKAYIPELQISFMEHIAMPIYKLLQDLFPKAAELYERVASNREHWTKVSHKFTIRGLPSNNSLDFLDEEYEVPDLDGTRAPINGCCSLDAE

IC50 [1] [nM]	Emax [1] [%]	Emax [2] [%]	IC50 [2] [nM]	IC50 [3, 4] [nM]	Emax ([3]; human recombinant PDE2A) [%]	Emax [3] [%]	IC50 [3] [nM]	SMILES
> 10000	11	69	4570	214	98	98	214	C[C@@H]1CCN(C(=O)c2cocn2)C[C@H]1c1cc(C(F)F)nc2ncnn12 [Compound 87]
389	97	99	3.98	0.209	101	101	0.209	C[C@@H]1CCN(C(=O)c2ccc3nc(N)sc3c2)C[C@H]1c1cc(C(F)F)nc2ncnn12 [Compound 88]
1320	88	98	24.5	0.398	100	100	0.398	Cc1coc2ccc(C(=O)N3CC[C@@H](C)[C@H](c4cc(C(F)F)nc5ncnn45)C3)cc12 [Compound 92]
105	99	97	11.7	0.501	101	101	0.501	C[C@@H]1CCN(C(=O)c2cc3ccc(C(F)(F)F)cc3[nH]2)C[C@H]1c1cc(C(F)F)nc2ncnn12 [Compound 94]
603	94	98	39.8	0.603	100	100	0.603	C[C@@H]1CCN(C(=O)c2cc(-c3ccco3)nn2C)C[C@H]1c1cc(C(F)F)nc2ncnn12 [Compound 98]
269	99	100	16.2	0.661	101	101	0.661	Cc1csc2ccc(C(=O)N3CC[C@@H](C)[C@H](c4cc(C(F)F)nc5ncnn45)C3)nc12 [Compound 100]
513	92	98	74.1	0.813	100	100	0.813	C[C@@H]1CCN(C(=O)c2ccc3ncoc3c2)C[C@H]1c1cc(C(F)F)nc2ncnn12 [Compound 104]
1350	90	101	29.5	0.871	101	101	0.871	COc1cccc2cc(C(=O)N3CC[C@@H](C)[C@H](c4cc(C(F)F)nc5ncnn45)C3)oc12 [Compound 105]
1780	84	99	47.9	1	101	101	1	C[C@@H]1CCN(C(=O)c2c[nH]c3ccc(F)cc23)C[C@H]1c1cc(C(F)F)nc2ncnn12 [Compound 112]
1120	88	99	38	1	99	99	1	COc1cc(C(=O)N2CC[C@@H](C)[C@H](c3cc(C(F)F)nc4ncnn34)C2)cc(C2CC2)n1 [Compound 113]
89.1	98	101	45.7	1.05	100	100	1.05	C[C@@H]1CCN(C(=O)c2cc3ccccc3n2C)C[C@H]1c1cc(C(F)F)nc2ncnn12 [Compound 114]
61.7	101	99	77.6	1.74	100	100	1.74	Cc1c(C(=O)N2CC[C@@H](C)[C@H](c3cc(C(F)F)nc4ncnn34)C2)sc2ccccc12 [Compound 119]
933	90	98	155	2.29	100	100	2.29	COc1c(F)cc(C(=O)N2CC[C@@H](C)[C@H](c3cc(C(F)F)nc4ncnn34)C2)cc1F [Compound 128]
